Measured values from patent US9476053B2, “Methods and compositions for inhibition of immune responses and autoimmunity” (Dynavax Technologies Corporation, priority 2007, dated 2016).
Like-named read-outs stand apart in the source and are kept apart here.

What was measured:
TLR9 = target: T1, TLR9 (Homo sapiens, UniProt Q9NR96); assay: TLR9 dependent cell responses (statement in description); type: cell-based
T1 sequence (Q9NR96 26-1032): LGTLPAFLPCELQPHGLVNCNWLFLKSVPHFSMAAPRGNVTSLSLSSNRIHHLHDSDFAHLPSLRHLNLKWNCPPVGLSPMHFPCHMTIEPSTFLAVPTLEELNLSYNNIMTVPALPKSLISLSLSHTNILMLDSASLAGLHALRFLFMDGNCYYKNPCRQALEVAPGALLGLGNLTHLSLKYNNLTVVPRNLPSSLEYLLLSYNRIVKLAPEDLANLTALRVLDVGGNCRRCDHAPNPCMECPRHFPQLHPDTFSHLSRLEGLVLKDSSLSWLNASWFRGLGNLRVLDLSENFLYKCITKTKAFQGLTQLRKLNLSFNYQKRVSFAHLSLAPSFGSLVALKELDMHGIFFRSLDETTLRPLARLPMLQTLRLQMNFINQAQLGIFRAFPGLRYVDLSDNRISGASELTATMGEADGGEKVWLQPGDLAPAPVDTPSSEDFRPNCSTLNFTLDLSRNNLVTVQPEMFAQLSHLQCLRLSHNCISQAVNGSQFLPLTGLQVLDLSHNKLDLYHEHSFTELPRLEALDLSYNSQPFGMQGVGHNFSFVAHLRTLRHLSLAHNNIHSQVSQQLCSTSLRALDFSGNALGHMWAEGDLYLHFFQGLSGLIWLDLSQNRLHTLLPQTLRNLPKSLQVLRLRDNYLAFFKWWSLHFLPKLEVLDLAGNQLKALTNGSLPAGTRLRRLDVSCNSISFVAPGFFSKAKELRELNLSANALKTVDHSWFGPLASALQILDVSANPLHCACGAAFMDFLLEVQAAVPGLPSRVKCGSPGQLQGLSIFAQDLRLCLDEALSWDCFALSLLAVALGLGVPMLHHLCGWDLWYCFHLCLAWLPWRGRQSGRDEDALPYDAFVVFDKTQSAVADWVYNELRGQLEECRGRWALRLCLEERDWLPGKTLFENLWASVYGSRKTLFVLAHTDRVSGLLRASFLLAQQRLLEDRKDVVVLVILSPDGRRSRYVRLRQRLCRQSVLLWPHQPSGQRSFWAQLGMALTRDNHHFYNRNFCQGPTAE

TLR7 [1] = target: T2, TLR7 (Homo sapiens, UniProt Q9NYK1); assay: TLR7 dependent cell responses (statement in description); type: cell-based
T2 sequence (Q9NYK1 27-1049): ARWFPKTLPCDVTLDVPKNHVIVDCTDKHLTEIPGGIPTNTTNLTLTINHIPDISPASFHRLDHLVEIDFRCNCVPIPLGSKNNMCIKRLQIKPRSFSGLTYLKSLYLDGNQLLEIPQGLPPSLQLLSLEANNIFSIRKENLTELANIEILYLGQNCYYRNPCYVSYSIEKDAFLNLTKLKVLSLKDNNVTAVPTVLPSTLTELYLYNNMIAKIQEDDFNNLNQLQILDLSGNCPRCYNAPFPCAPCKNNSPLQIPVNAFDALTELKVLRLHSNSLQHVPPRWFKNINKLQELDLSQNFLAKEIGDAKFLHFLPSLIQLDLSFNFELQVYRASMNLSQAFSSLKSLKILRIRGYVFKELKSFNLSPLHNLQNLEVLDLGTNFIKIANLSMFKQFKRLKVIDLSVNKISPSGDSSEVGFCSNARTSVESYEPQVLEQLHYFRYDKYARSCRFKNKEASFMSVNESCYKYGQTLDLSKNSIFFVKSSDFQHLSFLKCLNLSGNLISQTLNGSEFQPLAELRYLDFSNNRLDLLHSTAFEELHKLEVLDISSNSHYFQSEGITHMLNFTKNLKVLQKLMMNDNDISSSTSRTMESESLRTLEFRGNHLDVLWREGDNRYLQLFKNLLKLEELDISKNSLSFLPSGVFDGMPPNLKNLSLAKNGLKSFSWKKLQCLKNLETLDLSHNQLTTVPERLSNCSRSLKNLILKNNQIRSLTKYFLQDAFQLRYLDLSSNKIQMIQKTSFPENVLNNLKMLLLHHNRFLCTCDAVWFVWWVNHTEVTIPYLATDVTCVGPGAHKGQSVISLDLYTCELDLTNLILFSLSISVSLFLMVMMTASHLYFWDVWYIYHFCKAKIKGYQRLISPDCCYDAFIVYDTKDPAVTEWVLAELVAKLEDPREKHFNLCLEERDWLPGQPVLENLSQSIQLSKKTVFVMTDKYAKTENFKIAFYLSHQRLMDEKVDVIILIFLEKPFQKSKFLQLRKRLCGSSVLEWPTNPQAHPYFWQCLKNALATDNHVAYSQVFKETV

TLR7 [2] = target: T3, TLR7 (Mus musculus, UniProt P58681); assay: Mouse splenocytes stimulated with R848 (TLR7 ligand), IL-6 by immunoassay; type: cell-based
T3 construct: The dispersed splenocytes were pelleted by centrifugation, then resuspended in fresh medium; endogenous in cells; host or cells: primary splenocytes of BALB/c mice
T3 sequence (P58681 27-1050): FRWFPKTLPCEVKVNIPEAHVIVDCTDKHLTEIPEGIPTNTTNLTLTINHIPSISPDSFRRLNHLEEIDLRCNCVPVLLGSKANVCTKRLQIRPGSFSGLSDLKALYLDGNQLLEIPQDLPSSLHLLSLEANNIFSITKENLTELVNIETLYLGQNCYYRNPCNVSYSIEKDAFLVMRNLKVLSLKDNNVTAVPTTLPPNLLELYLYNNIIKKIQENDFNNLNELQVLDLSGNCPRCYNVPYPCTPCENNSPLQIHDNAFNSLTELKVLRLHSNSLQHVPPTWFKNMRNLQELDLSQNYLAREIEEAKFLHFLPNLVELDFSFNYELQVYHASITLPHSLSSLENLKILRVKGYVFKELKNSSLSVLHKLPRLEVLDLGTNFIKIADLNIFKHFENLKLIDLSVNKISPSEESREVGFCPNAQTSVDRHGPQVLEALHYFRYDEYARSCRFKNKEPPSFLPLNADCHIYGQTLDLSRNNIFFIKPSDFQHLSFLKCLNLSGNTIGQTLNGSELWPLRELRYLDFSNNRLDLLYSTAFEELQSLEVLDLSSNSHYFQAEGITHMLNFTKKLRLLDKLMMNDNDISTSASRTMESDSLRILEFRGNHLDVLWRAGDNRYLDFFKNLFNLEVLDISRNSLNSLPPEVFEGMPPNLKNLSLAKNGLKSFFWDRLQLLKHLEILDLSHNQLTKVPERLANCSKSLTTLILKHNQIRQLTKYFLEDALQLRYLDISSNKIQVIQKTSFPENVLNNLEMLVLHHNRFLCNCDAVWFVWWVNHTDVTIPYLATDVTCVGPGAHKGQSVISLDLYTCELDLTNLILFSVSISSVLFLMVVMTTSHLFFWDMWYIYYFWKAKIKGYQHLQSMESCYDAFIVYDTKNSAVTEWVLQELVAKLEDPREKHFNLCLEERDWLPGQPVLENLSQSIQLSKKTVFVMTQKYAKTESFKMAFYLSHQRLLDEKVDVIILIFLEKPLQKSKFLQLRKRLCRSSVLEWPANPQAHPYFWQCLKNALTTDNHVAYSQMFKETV
Method: Modified and unmodified immunoregulatory polynucleotides (IRPs) (i.e., polynucleotides containing at least one modified or unmodified IRS) or control samples were assayed for immunoregulatory (IR) activity of innate immune responses on human and mouse cells.
For mouse cell assays, spleens from 6-12 week-old BALB/c mice spleen were harvested and mechanically dispersed by forcing the digested fragments through metal screens. The dispersed splenocytes were pelleted by centrifugation, then resuspended in fresh medium (RPMI 1640 with 10% fetal calf serum, plus 50 units/mL penicillin, 50 μg/mL streptomycin, 2 mM glutamine, and 0.05 mM β-mercaptoethanol). In a dose-dependent manner, the cells were then stimulated with […] of 1018 ISS (TLR9 ligand; 5′-[…]-3′ (SEQ ID NO:122)) or 1 μM of R848 (TLR7 ligand; a small molecule, an imidazoquinoline also called resiquimod) either alone or in the presence of the tested IRPs. At 48 hours, supernatants were collected and cytokine levels, IL-6, were measured using immunoassays. […]

[3] = Solubility of spacer measured as dialcohol precursor; type: physicochemical; details: dodecyl spacer measured as dialcohol precursor
Method: Thus, the definition of spacers excludes microcarriers or nanocarriers. In addition, a spacer moiety that has low solubility, such as a dodecyl spacer (solubility <5 mg/ml when measured as dialcohol precursor 1,12-dihydroxydodecane) is not preferred because it can reduce the hydrophilicity and activity of the IRC. Preferably, spacer moieties have solubility much greater than 5 mg/ml (e.g., 20 mg/ml, ≦50 mg/ml or 100 mg/ml) when measured as dialcohol precursors.

[4] = tested on: plasmacytoid dendritic cells (PDCs); type: cell-based, human; details: read-out: concentration of hydroxycortisone necessary to achieve 50% death of PDCs

Row | Compound | TLR9 dependent cell responses (TLR9) | TLR7 dependent cell responses (TLR7 [1]) | also measured
1 | 5′-TCCTGGAGGGGTTGT-3′ (chemistry not given here) [SEQ ID NO:17] | greater inhibitory activity | – | –
2 | 5′-TGCTTGCAAGCTAGCAAGCA-3′ (chemistry not given here) [SEQ ID NO:33] | – | inhibits | –
3 | 5′-TGCTTGCAAGCTAGCAAGCA-HEG-TCCTGGAGGGGTTGT-3′ (TGCTTGCAAGCTAGCAAGCATCCTGGAGGGGTTGT; Two nucleotide segments joined by a hexaethylene glycol (HEG) spacer, nucleotide chemistry not given here) [SEQ ID NO:68] | very active in inhibiting | very active in inhibiting | –
4 | 5′-TGCTTGCAAGCTTGCAAGCA-3′ (chemistry not given here) [SEQ ID NO:27] | – | inhibits | –
5 | 5′-TGCTTGCAAGCTTGCTAGCA-3′ (chemistry not given here) [SEQ ID NO:34] | The same is also true | The same is also true | –
6 | 5′-TGCTTGCAAGCTTGCTAGCA-HEG-TCCTGGAGGGGTTGT-3′ (TGCTTGCAAGCTTGCTAGCATCCTGGAGGGGTTGT; Two nucleotide segments joined by a hexaethylene glycol (HEG) spacer, nucleotide chemistry not given here) [SEQ ID NO:69] | The same is also true | The same is also true | –
7 | 5′-UGC UCC UGG AGG GGU UGU-3′ (DNA UGCUCCUGGAGGGGUUGU; all 2'-O-methyl, backbone not given here) [SEQ ID NO:135, all nucleotides modified with a 2′-O-Me modification] | – | – | IL-6 levels compared to unmodified SEQ ID NO:123 (TLR7 [2]): significant decrease
8 | OCCCCCCCCCCCCO [1,12-dihydroxydodecane] | – | – | solubility [3]: < 5000 µg/mL
9 | C[C@]12CCC(=O)C=C1CC[C@@H]1[C@@H]2[C@@H](O)C[C@@]2(C)[C@H]1CC[C@]2(O)C(=O)CO [hydroxycortisone, reference compound] | – | – | EC50 ([4]; in the presence of CpG-C ISS C274): 2000 nM; EC50 ([4]; in the presence of HSV (HSV-1 KOS strain)): 150 nM; EC50 ([4]; in the presence of HSV and SEQ ID NO:123): 4 nM; EC50 ([4]; in the presence of influenza virus and SEQ ID NO:123): 22 nM; EC50 ([4]; in the presence of influenza virus): 4500 nM; EC50 ([4]; in the presence of the ISS and SEQ ID NO:123): 85 nM
